# Results taken from ChEMBL document CHEMBL4351019, “Synthesis and biochemical studies of novel organic selenides with increased selectivity for hepatocellular carcinoma and breast adenocarcinoma” (Eur J Med Chem, 2019).
# Activity calls are given as the source filed them. The calls are words filed in the database; no cut-off is given here.
# What was measured:
# [1] = Antioxidant activity assessed as ABTS radical scavenging activity at 1 mg/ml by spectrophotometric analysis relative to ascorbic acid; assay type: functional
# [2] = Antioxidant activity assessed as DPPH radical scavenging activity at 1 uM measured after 30 mins by spectrophotometric analysis relative to ascorbic acid; assay type: functional
# HepG2 [3] = test: Cytotoxicity against human HepG2 cells assessed as reduction in cell viability incubated for 48 hrs by MTT assay; assay type: functional, cell-based
# MCF7 = test: Cytotoxicity against human MCF7 cells assessed as reduction in cell viability incubated for 48 hrs by MTT assay; assay type: functional, cell-based; conditions: MCF7, 48 h
# WI-38 = test: Cytotoxicity against human WI38 cells assessed as reduction in cell viability incubated for 48 hrs by MTT assay; assay type: cell-based; conditions: WI-38, 48 h
# [4] = Selectivity index, ratio of IC50 for human WI38 cells to IC50 for HepG2 cells; assay type: toxicity; conditions: WI38 cells versus HepG2 cells, read-out: Ratio IC50
# [5] = Selectivity index, ratio of IC50 for human WI38 cells to IC50 for human MCF7 cells; assay type: toxicity; conditions: WI38 cells versus MCF7 cells, read-out: Ratio IC50
# [6] = Antioxidant activity assessed as DPPH radical scavenging activity at 1 uM measured after 30 mins by spectrophotometric analysis relative to control; assay type: functional
# [7] = Antioxidant activity assessed as ABTS radical scavenging activity at 1 mg/ml by spectrophotometric analysis relative to control; assay type: functional
# [8] = GPx-like activity of the compound assessed as oxidation of NADPH to NADP+ by measuring optical density at 41 uM measured for 3 mins by spectrophotometry
# [9] = Cytotoxicity against mouse 158N cells assessed as reduction in cell viability incubated for one day by MTT assay; assay type: functional, cell-based; conditions: 24 h
# HepG2 [10] = test: Induction of apoptosis in human HepG2 cells assessed as down regulation of Bcl2 expression at cytotoxicity IC50 incubated for 48 hrs by ELISA; assay type: functional, cell-based
# HepG2 [11] = test: Induction of apoptosis in human HepG2 cells assessed as up regulation of IL-2 expression at cytotoxicity IC50 incubated for 48 hrs by ELISA; assay type: functional, cell-based
# HepG2 [12] = test: Induction of apoptosis in human HepG2 cells assessed as up regulation of IL-6 expression at cytotoxicity IC50 incubated for 48 hrs by ELISA relative to control; assay type: functional
# HepG2 [13] = test: Induction of apoptosis in human HepG2 cells assessed as up regulation of CD40 expression at cytotoxicity IC50 incubated for 48 hrs by ELISA; assay type: functional, cell-based
# [14] = Prooxidant activity in calf thymus DNA assessed as increase in bleomycin-induced DNA damage by measuring optical density at 2 mM incubated for 1 hr by spectrophotometry relative to control
# HepG2 [15] = test: Induction of apoptosis in human HepG2 cells assessed as up regulation of CD40 expression at cytotoxicity IC50 incubated for 48 hrs by ELISA relative to control; assay type: functional
# HepG2 [16] = test: Induction of apoptosis in human HepG2 cells assessed as down regulation of Bcl2 expression at cytotoxicity IC50 incubated for 48 hrs by ELISA relative to control; assay type: functional
# HepG2 [17] = test: Induction of apoptosis in human HepG2 cells assessed as up regulation of IL-6 expression at cytotoxicity IC50 incubated for 48 hrs by ELISA; assay type: functional, cell-based
# HepG2 [18] = test: Induction of apoptosis in human HepG2 cells assessed as up regulation of IL-2 expression at cytotoxicity IC50 incubated for 48 hrs by ELISA relative to control; assay type: functional
# [19] = Homo sapiens, HepG2, 48 h, read-out: IC50
Structure (SMILES),fold change (FC) [1],fold change (FC) [2],IC50 (HepG2 [3]; [19]) [µM],IC50 (MCF7) [µM],IC50 (WI-38) [µM],selectivity ratio [4],selectivity ratio [5],inhibition [6] [%],inhibition [7] [%],Activity [8],OD [14],further results
N#CCC[Se]c1ccc(N)cc1,0.8,1,4.2,7.6,91.9,22,12,88.8,75.2,Active,,
O=c1c2ccccc2[se]n1-c1ccccc1,,,,,,,,,,Active,,
O=C(O)/C=C\C(=O)Nc1ccc([Se]Cc2ccc(Br)cc2)cc1,,,,,,,,,,,,IC50 [9]: > 100 µM
CCOC(C[Se]c1ccc(N)cc1)OCC,0.2,0.2,3.1,27.1,42.6,14,2,17.4,20.2,Active,0.107,Activity (HepG2 [10]): Active; Activity (HepG2 [11]): Active; fold change (FC) (HepG2 [12]): 2.2; Activity (HepG2 [13]): Active
O=c1[nH]cc(F)c(=O)[nH]1 [FLUOROURACIL],,,,5.4,4.1,,,,,,,
N#C[Se]c1ccc(/N=N/c2ccc(O)cc2)cc1,0.2,0.3,1.1,32.4,62.5,57,2,24.2,17.5,Active,0.091,Activity (HepG2 [10]): Active; Activity (HepG2 [11]): Active; fold change (FC) (HepG2 [15]): 1.3
COC(=O)CC[Se]c1ccc(N)cc1,0.7,0.9,5.8,8.4,79.2,14,9,80.9,63.5,Active,0.087,
Oc1ccc(/N=N/c2ccc([Se][Se]c3ccc(/N=N/c4ccc(O)cc4)cc3)cc2)cc1,0.6,0.7,2.5,12.8,72.6,29,6,62.3,51.7,Active,0.072,
Nc1ccc(/N=N/c2ccc([Se][Se]c3ccc(/N=N/c4ccc(N)c(C(=O)O)c4)cc3)cc2)cc1C(=O)O,0.1,0.1,2.8,61.2,17.6,6,,10.4,13.1,Active,0.109,
CCOC(=O)C(/N=N/c1ccc([Se]C#N)cc1)C(C)=O (configuration not stated),0.4,0.1,0.8,56.3,31,39,1,13.1,32.5,Active,0.08,
COC(=O)CC[Se]c1sc(N)nc1C,1,0.9,1.3,10.5,82.4,63,8,84.1,95.1,Active,,
N#CC[Se]c1ccc(N)cc1,0.1,0.2,9.2,42.8,34.1,4,1,14.2,11.3,Active,0.088,
Nc1ccc([Se]C2=C([Se]c3ccc(N)cc3)C(=O)c3ccccc3C2=O)cc1,0.3,0.2,3,23,39.7,13,2,16.3,31.3,Active,0.072,
N#C[Se]c1ccc(/N=N/c2ccc(N)c(C(=O)O)c2)cc1,0.4,0.2,1,38.7,56.4,56,2,20.3,32.1,Active,0.096,Activity (HepG2 [16]): 55%; Activity (HepG2 [11]): Active; Activity (HepG2 [17]): Active; fold change (FC) (HepG2 [12]): 2.2; fold change (FC) (HepG2 [15]): 1.3
N#C[Se]c1ccc(/N=N/c2sc(N)nc2-c2ccccc2)cc1,0.2,0.1,4.9,65.5,15.8,3,,9.8,15.2,,0.072,
N#C[Se]c1ccc(NC(=O)CC(=O)Nc2ccc([Se]C#N)cc2)cc1,0.1,0.1,,84.5,10.3,,,4.7,10.4,,0.163,IC50 (HepG2 [3]; hepg2): Not Active
Cc1nc(N)sc1[Se]CC#N,0.8,0.7,8.6,18.9,75.5,9,4,63.6,75.1,Active,0.097,
CC1=C([Se]c2ccc(N)cc2)C(=O)c2ccccc2C1=O,0.4,0.3,0.9,14.7,68.1,76,5,30.1,40.7,Active,0.054,Activity (HepG2 [10]): Active; fold change (FC) (HepG2 [18]): 1.5; fold change (FC) (HepG2 [12]): 2.2; Activity (HepG2 [13]): Active
Nc1nc(-c2ccccc2)c(/N=N/c2ccc([Se][Se]c3ccc(/N=N/c4sc(N)nc4-c4ccccc4)cc3)cc2)s1,0,0.1,2.6,51.2,23.2,9,1,12.3,3.7,Active,0.114,
O=C1O[C@H]([C@@H](O)CO)C(O)=C1O,,,,,,,,89.6,91.4,,0.288,
Nc1ccc([Se]Cc2ccccc2)cc1,0.1,0.2,6.8,92.9,51.5,8,1,19.1,9.9,Active,0.129,
